Among the data in patent publication US20110166121A1 (LG LIFE SCIENCES LTD., priority 2008, published 2011) are Ki values, retold here.

Structures are written as SMILES. Structures can show the parent of a compound that is named as a salt.

This experiment has as its system Human platelet aggregation caused by ADP. Briefly: Inhibition of ADP-induced platelet aggregation (Mimic-human PRP). The note with it: 20 μM ADP, human platelet concentrate diluted with PPP, absorption at 595 nm. It counts as cell-based. The method, boiled down:
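Ki came from non-linear sigmoidal fits of inhibition, measured as the 3-min rise in absorbance at 595 nm after 20 μM ADP, relative to 0/20 μM ADP controls. Platelets (3–4×10^8/mL in PPP-diluted human PRP) were exposed to 0.01–30 μM compound for 20 min at room temperature beforehand.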
Consider `CCCC(=O)N1CC[C@H](CNc2nc(N3CCn4c(nnc4C(F)(F)F)C3)c3cc(CCC)sc3n2)C1` [Example 8-23, 1-((R)-3-{[6-Propyl-4-(3-trifluoromethyl-5,6-dihydro-8H-[1,2,4]triazolo[4,3-a]pyrazin-7-yl)-thieno[2,3-d]pyrimidin-2-ylamino]-methyl}-pyrrolidin-1-yl)-butan-1-one], for which the Ki (usually the equilibrium dissociation constant of an inhibitor or competing ligand from its target) was found to be 570 nM.

`CCCc1cc2c(N3CCn4c(nnc4C(F)(F)F)C3)nc(OC[C@H]3CCCN3C(=O)C(C)C)nc2s1` [Example 8-30, 2-Methyl-1-{(R)-2-[6-propyl-4-(3-trifluoromethyl-5,6-dihydro-8H-[1,2,4]triazolo[4,3-a]pyrazin-7-yl)-thieno[2,3-d]pyrimidin-2-yloxymethyl]-pyrrolidin-1-yl}-propan-1-one] displayed a Ki of 140 nM. This Ki is about 4.1-fold lower than that of the molecule before.

Turning to `CCCc1cc2c(N3CCn4c(nnc4C(F)(F)F)C3)nc(N3CC[C@H](NC(=O)C(C)C)C3)nc2s1` [Example 7-2, Hydrochloric acid salt of N-{(S)-1-[6-Propyl-4-(3-trifluoromethyl-5,6-dihydro-8H-[1,2,4]triazolo[4,3-a]pyrazin-7-yl)-thieno[2,3-d]pyrimidin-2-yl]-pyrrolidin-3-yl}-isobutyramide], the affinity corresponds to a Ki of 79 nM. This Ki is about 1.8-fold lower than that of the molecule before.

In turn, `CCCc1cc2c(N3CCn4c(nnc4C(F)(F)F)C3)nc(N3CC(O)C(NC(=O)C(C)C)C3)nc2s1` (stereo not shown) [Example 7-20, N-{4-Hydroxy-1-[6-propyl-4-(3-trifluoromethyl-5,6-dihydro-8H-[1,2,4]triazolo[4,3-a]pyrazin-7-yl)-thieno[2,3-d]pyrimidin-2-yl]-pyrrolidin-3-yl}-isobutyramide] gave a Ki of 4.8 nM. This Ki is about 16-fold lower than that of the molecule before.

For `CCCc1cc2c(N3CCn4c(nnc4C(F)(F)F)C3)nc(N3CC[C@@H](NC=O)C3)nc2s1` [Example 9-22, N-{(R)-1-[6-Propyl-4-(3-trifluoromethyl-5,6-dihydro-8H-[1,2,4]triazolo[4,3-a]pyrazin-7-yl)-thieno[2,3-d]pyrimidin-2-yl]-pyrrolidin-3-yl}-formamide], the Ki amounted to 15 nM.

The molecule `CCCc1cc2c(N3CCn4c(nnc4C(F)(F)F)C3)nc(N3CCCC(C(=O)N(C)C)C3)nc2s1` (stereo not shown) [Example 1-94, 1-[6-Propyl-4-(3-trifluoromethyl-5,6-dihydro-8H-[1,2,4]triazolo[4,3-a]pyrazin-7-yl)-thieno[2,3-d]pyrimidin-2-yl]-piperidine-3-carboxylic acid dimethylamide] gave a Ki of 29 nM.

As to `CCCc1cc2c(N3CCn4c(nnc4C(F)(F)F)C3)nc(N3CC(NC(C)=O)C(OC(C)=O)C3)nc2s1` (stereo not shown) [Example 7-18, Acetic acid 4-acetylamino-1-[6-propyl-4-(3-trifluoromethyl-5,6-dihydro-8H-[1,2,4]triazolo[4,3-a]pyrazin-7-yl)-thieno[2,3-d]pyrimidin-2-yl]-pyrrolidin-3-yl ester], the Ki came out at 6.5 nM.

Molecule `CCCc1cc2c(N3CCn4c(nnc4C(F)(F)F)C3)nc(NCCN)nc2s1` [Example 7-38, Hydrochloric acid salt of N-1-[6-Propyl-4-(3-trifluoromethyl-5,6-dihydro-8H-[1,2,4]triazolo[4,3-a]pyrazin-7-yl)-thieno[2,3-d]pyrimidin-2-yl]-ethane-1,2-diamine] returned a Ki of 50 nM.

Molecule `CCCc1cc2c(N3CCn4c(nnc4C(F)(F)F)C3)nc(OCCN(CC(=O)OCC)C(=O)C3CC3)nc2s1` [Example 3-56, (Cyclopropanecarbonyl-{2-[6-propyl-4-(3-trifluoromethyl-5,6-dihydro-8H-[1,2,4]triazolo[4,3-a]pyrazin-7-yl)-thieno[2,3-c]pyrimidin-2-yloxy]-ethyl}-amino)-acetic acid ethyl ester] yielded a Ki of 75 nM.

`CCCc1cc2c(N3CCn4c(nnc4C(F)(F)F)C3)nc(N3CC4OC(=O)N[C@H]4C3)nc2s1` (stereo partly drawn) [Example 7-26, (S)-5-[6-Propyl-4-(3-trifluoromethyl-5,6-dihydro-8H-[1,2,4]triazolo[4,3-a]pyrazin-7-yl)-thieno[2,3-d]pyrimidin-2-yl]-hexahydro-pyrrolo[3,4-d]oxazol-2-one] yielded a Ki of 2.1 nM.

`CCCC(=O)N1CCC[C@@H]1COc1nc(N2CCn3c(nnc3C(F)(F)F)C2)c2cc(CCC)sc2n1` [Example 8-29, 1-{(R)-2-[6-Propyl-4-(3-trifluoromethyl-5,6-dihydro-8H-[1,2,4]triazolo[4,3-a]pyrazin-7-yl)-thieno[2,3-d]pyrimidin-2-yloxymethyl]-pyrrolidin-1-yl}-butan-1-one] came in with an inhibition constant Ki of 170 nM.

Consider `CCCc1cc2c(N3CCn4c(nnc4C(F)(F)F)C3)nc(OCCN3C(=O)CNC3=O)nc2s1` [Example 9-105, 3-{2-[6-Propyl-4-(3-trifluoromethyl-5,6-dihydro-8H-[1,2,4]triazolo[4,3-a]pyrazin-7-yl)-thieno[2,3-d]pyrimidin-2-yloxy]-ethyl}-imidazolidine-2,4-dione], for which the Ki was more than 3000 nM.

On to `CCCc1cc2c(N3CCn4c(nnc4C(F)(F)F)C3)nc(N3CC[C@H](NC(=O)c4ccc(Cl)s4)C3)nc2s1` [Example 9-11, 5-Chloro-thiophene-2-carboxylic Acid {(S)-1-[6-propyl-4-(3-trifluoromethyl-5,6-dihydro-8H-[1,2,4]triazolo[4,3-a]pyrazin-7-yl)-thieno[2,3-d]pyrimidin-2-yl]-pyrrolidin-3-yl}-amide], for which the affinity, expressed as Ki, was 48 nM.

The molecule `CCCc1cc2c(N3CCn4c(nnc4C(F)(F)F)C3)nc(N3CCCC(C(N)=O)C3)nc2s1` (stereo not shown) [Example 1-92, 1-[6-Propyl-4-(3-trifluoromethyl-5,6-dihydro-8H-[1,2,4]triazolo[4,3-a]pyrazin-7-yl)-thieno[2,3-d]pyrimidin-2-yl]-piperidine-3-carboxylic acid amide] returned a Ki of 30 nM.

Turning to `CCCc1cc2c(N3CCn4c(nnc4C(F)(F)F)C3)nc(OCCN(C)C(=O)OC)nc2s1` [Example 9-95, Methyl-{2-[6-propyl-4-(3-trifluoromethyl-5,6-dihydro-8H-[1,2,4]triazolo[4,3-a]pyrazin-7-yl)-thieno[2,3-d]pyrimidin-2-yloxy]-ethyl}-carbamic acid methyl ester], affinity was put at a Ki of 7.2 nM. This Ki lies about 4.2-fold lower than the previous one.

`CCCc1cc2c(N3CCn4c(nnc4C(F)(F)F)C3)nc(N3C=CC4=NCCNC4=C3)nc2s1` [Example 1-133, 6-[6-Propyl-4-(3-trifluoromethyl-5,6-dihydro-8H-[1,2,4]triazolo[4,3-a]pyrazin-7-yl)thieno[2,3-d]pyrimidin-2-yl]-2,3,4,6-tetrahydro-pyrido[3,4-b]pyrazine] returned a Ki of 145 nM.

With `CCCc1cc2c(N3CCn4c(nnc4C(F)(F)F)C3)nc(OCC(C)(C)NC=O)nc2s1` [Example 9-78, N-{1,1-Dimethyl-2-[6-propyl-4-(3-trifluoromethyl-5,6-dihydro-8H-[1,2,4]triazolo[4,3-a]pyrazin-7-yl)-thieno[2,3-d]pyrimidin-2-yloxy]-ethyl}-formamide], the Ki worked out at 25 nM.

`CCCc1cc2c(N3CCn4c(nnc4C(F)(F)F)C3)nc(N)nc2s1` [Example 9-38, 6-Propyl-4-(3-trifluoromethyl-5,6-dihydro-8H-[1,2,4]triazolo[4,3-a]pyrazin-7-yl)-thieno[2,3-d]pyrimidin-2-ylamine] displayed a Ki of 49 nM. Against the preceding molecule, the Ki is about 2-fold higher.

For `CCCc1cc2c(N3CCn4c(nnc4C(F)(F)F)C3)nc(OCCNC(=O)C(C)(CO)CO)nc2s1` [Example 7-34, 3-Hydroxy-2-hydroxymethyl-2-methyl-N-{2-[6-propyl-4-(3-trifluoromethyl-5,6-dihydro-8H-[1,2,4]triazolo[4,3-a]pyrazin-7-yl)-thieno[2,3-d]pyrimidin-2-yloxy]-ethyl}-propionamide], the affinity corresponds to a Ki of 16 nM. Against the preceding molecule, the Ki is about 3.1-fold lower.

In turn, `CCCc1cc2c(N3CCn4c(nnc4C(F)(F)F)C3)nc(OC[C@@H]3CCN(C(C)=O)C3)nc2s1` [Example 8-34, 1-{(R)-3-[6-Propyl-4-(3-trifluoromethyl-5,6-dihydro-8H-[1,2,4]triazolo[4,3-a]pyrazin-7-yl)-thieno[2,3-d]pyrimidin-2-yloxymethyl]-pyrrolidin-1-yl}-ethanone] yielded a Ki of 45 nM.

With `CCCc1cc2c(N3CCn4c(nnc4C(F)(F)F)C3)nc(N3CCC[C@@H](NC(C)=O)C3)nc2s1` [Example 7-6, Hydrochloric acid salt of N-{(R)-1-[6-Propyl-4-(3-trifluoromethyl-5,6-dihydro-8H-[1,2,4]triazolo[4,3-a]pyrazin-7-yl)-thieno[2,3-d]pyrimidin-2-yl]-piperidin-3-yl}-acetamide], the Ki is 18 nM.

For the molecule `CCCc1cc2c(N3CCn4c(nnc4C(F)(F)F)C3)nc(OCCNC(N)=O)nc2s1` [Example 9-27, {2-[6-Propyl-4-(3-trifluoromethyl-5,6-dihydro-8H-[1,2,4]triazolo[4,3-a]pyrazin-7-yl)-thieno[2,3-d]pyrimidin-2-yloxy]-ethyl}-urea], the Ki turned out to be 6.5 nM.

Consider `CCCc1cc2c(N3CCn4c(nnc4C(F)(F)F)C3)nc(OC[C@@H]3CCN(C(=O)C(C)C)C3)nc2s1` [Example 8-36, 2-Methyl-1-{(R)-3-[6-propyl-4-(3-trifluoromethyl-5,6-dihydro-8H-[1,2,4]triazolo[4,3-a]pyrazin-7-yl)-thieno[2,3-d]pyrimidin-2-yloxymethyl]-pyrrolidin-1-yl}-propan-1-one], for which the affinity, expressed as Ki, was 45 nM.

With `CCCc1cc2c(N3CCn4c(nnc4C(F)(F)F)C3)nc(OCCN(CC(=O)O)C(=O)C3CC3)nc2s1` [Example 3-57, (Cyclopropanecarbonyl-{2-[6-propyl-4-(3-trifluoromethyl-5,6-dihydro-8H-[1,2,4]triazolo[4,3-a]pyrazin-7-yl)-thieno[2,3-d]pyrimidin-2-yloxy]-ethyl}-amino)-acetic acid], the inhibition constant Ki was determined as 23 nM. This Ki lies about 2-fold lower than the previous one.

For `CCCc1cc2c(N3CCn4c(nnc4C(F)(F)F)C3)nc(OC[C@H]3CCCN3)nc2s1` [Example 7-36, Hydrochloric acid salt of 7-[6-Propyl-2-((R)-1-pyrrolidin-2-ylmethoxy)-thieno[2,3-d]pyrimidin-4-yl]-3-trifluoromethyl-5,6,7,8-tetrahydro-[1,2,4]triazolo[4,3-a]pyrazine], the affinity corresponds to a Ki of 100 nM.
